Results on 33 molecules are retold here after patent publication US8269008B2, “Oxazolopyridine and isoxazolopyridine derivatives for use in the treatment of HIF-mediated conditions” (FibroGen, Inc., priority 2007, dated 2012).

Molecules are shown by their SMILES.

The assay concerns the target T1, HIF-PH2 (EGLN1) (Homo sapiens, UniProt Q9GZT9).
T1 construct: made in house; host or cells: insect Hi5 cells
The assay can be described thus: HIF-PH assay (14CO2 capture, peptide-dependent turnover). It counts as biochemical. The conditions noted are these: for inhibition at 22.22 µM: Concentration 22.22 μM. An excerpt:
Ketoglutaric acid α-[1-^14C]-sodium salt, alpha-ketoglutaric acid sodium salt, and HPLC purified peptide may be obtained from commercial sources, e.g., Perkin-Elmer (Wellesley Mass.), Sigma-Aldrich, and SynPep Corp. (Dublin Calif.), respectively. Peptides for use in the assay may be fragments of HIFα as described above or as disclosed in International Publication WO 2005/118836, incorporated by reference herein. For example, a HLF peptide for use in the HIF-PH assay is [methoxycoumarin]-DLDLEALAPYIPADDDFQL-amide. HIF-PH, e.g., HIF-PH2 (EGLN1), can be expressed in, e.g., insect Hi5 cells, and partially purified, e.g., through a SP ion exchange chromatography column. Enzyme activity is determined by capturing ^14CO2 using an assay described by Kivirikko and Myllyla (1982, Methods Enzymol. 82:245-304). Assay reactions contain 50 mM HEPES (pH 7.4), 100 μM α-ketoglutaric acid sodium salt, 0.30 μCi/mL ketoglutaric acid α-[1-^14C]-sodium salt, 40 μM FeSO4, 1 mM ascorbate, 1541.8 units/mL Catalase, with or without 50 μM peptide substrate and various concentrations of compound of the invention. Reactions are initiated by addition of HIF-PH enzyme.
The peptide-dependent percent turnover is calculated by subtracting percent turnover in the absence of peptide from percent turnover in the presence of substrate peptide. Percent inhibition and IC50 are calculated using peptide-dependent percent turnover at given inhibitor concentrations. Calculation of IC50 values for each inhibitor is conducted using GraFit software (Erithacus Software Ltd., Surrey UK). […]

T1 sequence (Q9GZT9 whole entry, species assumed): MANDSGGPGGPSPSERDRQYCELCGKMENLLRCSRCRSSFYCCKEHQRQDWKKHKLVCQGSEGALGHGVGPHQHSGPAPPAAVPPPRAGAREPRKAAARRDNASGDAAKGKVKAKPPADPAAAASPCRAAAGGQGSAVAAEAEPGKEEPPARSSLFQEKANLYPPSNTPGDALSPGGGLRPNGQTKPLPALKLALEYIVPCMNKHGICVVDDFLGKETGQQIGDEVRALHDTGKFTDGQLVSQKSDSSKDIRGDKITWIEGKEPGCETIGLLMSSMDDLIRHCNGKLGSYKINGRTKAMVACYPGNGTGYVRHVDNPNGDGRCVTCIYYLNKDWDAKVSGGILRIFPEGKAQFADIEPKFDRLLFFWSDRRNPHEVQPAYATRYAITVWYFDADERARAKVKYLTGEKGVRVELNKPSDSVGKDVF

As a reminder, the inhibition is the relative decrease from the control value, in per cent. The molecule `O=C(O)CNC(=O)c1ncc2nc(-c3ccccc3)oc2c1O` [Example 1, [(7-Hydroxy-2-phenyl-oxazolo[4,5-c]pyridine-6-carbonyl)-amino]-acetic acid] came in with an inhibition at 200 µM (Concentration 200.00 μM) of 99.8%.

Take `O=C(O)CNC(=O)c1ncc2nc(-c3ccc(F)cc3)oc2c1O` [Example 2, {[2-(4-Fluoro-phenyl)-7-hydroxy-oxazolo[4,5-c]pyridine-6-carbonyl]-amino}-acetic acid]: for the setting “Concentration 200.00 μM”, at 200 µM the inhibition was 100%.

`Cc1nc(C(=O)NCC(=O)O)c(O)c2oc(-c3ccccc3)nc12` [Example 3, [(7-Hydroxy-4-methyl-2-phenyl-oxazolo[4,5-c]pyridine-6-carbonyl)-amino]-acetic acid] returned an inhibition at 200 µM (Concentration 200.00 μM) of 48.9%.

`CCc1nc(C(=O)NCC(=O)O)c(O)c2oc(-c3ccccc3)nc12` [Example 4, [(4-Ethyl-7-hydroxy-2-phenyl-oxazolo[4,5-c]pyridine-6-carbonyl)-amino]-acetic acid]: for the setting “Concentration 200.00 μM”, testing at 200 µM gave an inhibition of 99.2%.

Consider `O=C(O)CNC(=O)c1nc(-c2ccccc2)c2nc(-c3ccccc3)oc2c1O` [Example 5, [(7-Hydroxy-2,4-diphenyl-oxazolo[4,5-c]pyridine-6-carbonyl)-amino]-acetic acid], for which testing at 200 µM (Concentration 200.00 μM) gave an inhibition of 98.7%.

`O=C(O)CNC(=O)c1nc(C#Cc2ccccc2)c2nc(-c3ccccc3)oc2c1O` [Example 6, [(7-Hydroxy-2-phenyl-4-phenylethynyl-oxazolo[4,5-c]pyridine-6-carbonyl)-amino]-acetic acid] had an inhibition at 200 µM (Concentration 200.00 μM) of 99%.

Molecule `CCCCc1nc(C(=O)NCC(=O)O)c(O)c2oc(-c3ccccc3)nc12` [Example 7, [(4-Butyl-7-hydroxy-2-phenyl-oxazolo[4,5-c]pyridine-6-carbonyl)-amino]-acetic acid] displayed an inhibition at 200 µM (Concentration 200.00 μM) of 99.5%.

The molecule `O=C(O)CNC(=O)c1nc(-c2ccc(F)cc2)c2nc(-c3ccccc3)oc2c1O` [Example 8, {[4-(4-Fluoro-phenyl)-7-hydroxy-2-phenyl-oxazolo[4,5-c]pyridine-6-carbonyl]-amino}-acetic acid] showed an inhibition at 200 µM (Concentration 200.00 μM) of 97.3%.

Where the note is “Concentration 200.00 μM”, `O=C(O)CNC(=O)c1ncc2oc(-c3ccccc3)nc2c1O` [Example 9, [(7-Hydroxy-2-phenyl-oxazolo[5,4-c]pyridine-6-carbonyl)-amino]-acetic acid] had an inhibition at 200 µM of 98.6%.

Regarding `COc1cccc(-c2nc(C(=O)NCC(=O)O)c(O)c3oc(-c4ccccc4)nc23)c1` [Example 10, {[7-Hydroxy-4-(3-methoxy-phenyl)-2-phenyl-oxazolo[4,5-c]pyridine-6-carbonyl]-amino}-acetic acid], the inhibition at 200 µM (Concentration 200.00 μM) was determined as 99%.

`O=C(O)CNC(=O)c1ncc2onc(-c3ccccc3)c2c1O` [Example 11, [(4-Hydroxy-3-phenyl-isoxazolo[5,4-c]pyridine-5-carbonyl)-amino]-acetic acid] displayed an inhibition at 200 µM (Concentration 200.00 μM) of 99.9%.

For the molecule `Cc1nc(C(=O)NCC(=O)O)c(O)c2c(-c3ccccc3)noc12` [Example 12, [(4-Hydroxy-7-methyl-3-phenyl-isoxazolo[5,4-c]pyridine-5-carbonyl)-amino]-acetic acid], 200 µM produced 98.6% inhibition (Concentration 200.00 μM).

Regarding `O=C(O)CNC(=O)c1nc(-c2ccccc2)c2onc(-c3ccccc3)c2c1O` [Example 13, [(4-Hydroxy-3,7-diphenyl-isoxazolo[5,4-c]pyridine-5-carbonyl)-amino]-acetic acid], testing at 22.22 µM gave an inhibition of 98.4%.

With `O=C(O)CNC(=O)c1ncc2onc(-c3ccc(Cl)cc3)c2c1O` [Example 14, {[3-(4-Chloro-phenyl)-4-hydroxy-isoxazolo[5,4-c]pyridine-5-carbonyl]-amino}-acetic acid], the inhibition at 22.22 µM stood at 98.8%.

Molecule `O=C(O)CNC(=O)c1ncc2onc(-c3ccccc3Cl)c2c1O` [Example 15, {[3-(2-Chloro-phenyl)-4-hydroxy-isoxazolo[5,4-c]pyridine-5-carbonyl]-amino}-acetic acid] yielded an inhibition at 22.22 µM of 95.7%.

Turning to `COc1ccc(-c2noc3cnc(C(=O)NCC(=O)O)c(O)c23)cc1` [Example 16, {[4-Hydroxy-3-(4-methoxy-phenyl)-isoxazolo[5,4-c]pyridine-5-carbonyl]-amino}-acetic acid], 22.22 µM produced 97.9% inhibition.

The molecule `O=C(O)CNC(=O)c1ncc2onc(-c3cccc(Cl)c3)c2c1O` [Example 17, {[3-(3-Chloro-phenyl)-4-hydroxy-isoxazolo[5,4-c]pyridine-5-carbonyl]-amino}-acetic acid] registered an inhibition at 22.22 µM of 98.6%.

On to `O=C(O)CNC(=O)c1ncc2onc(-c3c(F)cccc3Cl)c2c1O` [Example 18, {[3-(2-Chloro-6-fluoro-phenyl)-4-hydroxy-isoxazolo[5,4-c]pyridine-5-carbonyl]-amino}-acetic acid], for which the inhibition at 22.22 µM is 88.2%.

As to `O=C(O)CNC(=O)c1ncc2onc(-c3ccc(F)cc3)c2c1O` [Example 19, {[3-(4-Fluoro-phenyl)-4-hydroxy-isoxazolo[5,4-c]pyridine-5-carbonyl]-amino}-acetic acid], the inhibition at 22.22 µM came out at 97.9%.

In the case of `N#Cc1nc(C(=O)NCC(=O)O)c(O)c2c(-c3ccccc3)noc12` [Example 20, [(7-Cyano-4-hydroxy-3-phenyl-isoxazolo[5,4-c]pyridine-5-carbonyl)-amino]-acetic acid], 22.22 µM produced 98.5% inhibition.

In turn, `Cc1nc(C(=O)NCC(=O)O)c(O)c2c(-c3ccc(Cl)cc3)noc12` [Example 21, {[3-(4-Chloro-phenyl)-4-hydroxy-7-methyl-isoxazolo[5,4-c]pyridine-5-carbonyl]-amino}-acetic acid] yielded an inhibition at 200 µM (Concentration 200.00 μM) of 99.4%.

Take `O=C(O)CNC(=O)c1nc(Br)c2onc(-c3ccc(F)cc3)c2c1O` [Example 22, {[7-Bromo-3-(4-fluoro-phenyl)-4-hydroxy-isoxazolo[5,4-c]pyridine-5-carbonyl]-amino}-acetic acid]: the inhibition at 22.22 µM came to 98.7%.

`N#Cc1nc(C(=O)NCC(=O)O)c(O)c2c(-c3ccc(F)cc3)noc12` [Example 23, {[7-Cyano-3-(4-fluoro-phenyl)-4-hydroxy-isoxazolo[5,4-c]pyridine-5-carbonyl]-amino}-acetic acid] yielded an inhibition at 22.22 µM of 98.2%.

As to `O=C(O)CNC(=O)c1nc(Br)c2onc(-c3ccc(Cl)cc3)c2c1O` [Example 24, {[7-Bromo-3-(4-chloro-phenyl)-4-hydroxy-isoxazolo[5,4-c]pyridine-5-carbonyl]-amino}-acetic acid], testing at 22.22 µM gave an inhibition of 100%.

`N#Cc1nc(C(=O)NCC(=O)O)c(O)c2c(-c3ccc(Cl)cc3)noc12` [Example 25, {[3-(4-Chloro-phenyl)-7-cyano-4-hydroxy-isoxazolo[5,4-c]pyridine-5-carbonyl]-amino}-acetic acid] returned an inhibition at 22.22 µM of 98.7%.

Turning to `Cc1nc(C(=O)NCC(=O)O)c(O)c2c(-c3ccc(F)cc3)noc12` [Example 26, {[3-(4-Fluoro-phenyl)-4-hydroxy-7-methyl-isoxazolo[5,4-c]pyridine-5-carbonyl]-amino}-acetic acid], the inhibition at 22.22 µM is 93.8%.

For the molecule `O=C(O)CNC(=O)c1nc(NCC(=O)O)c2onc(-c3cccc(Cl)c3)c2c1O` [Example 27, {[3-(3-Chloro-phenyl)-7-(ethanic acid-2-yl)amino-4-hydroxy-isoxazolo[5,4-c]pyridine-5-carbonyl]-amino}-acetic acid], the “% Inhibition (HIF-PH2)” value (Concentration 200.00 μM) is recorded as 96.45%.

For the molecule `C#Cc1nc(C(=O)NCC(=O)O)c(O)c2c(-c3ccc(Cl)cc3)noc12` [Example 28, {[3-(4-Chloro-phenyl)-7-ethynyl-4-hydroxy-isoxazolo[5,4-c]pyridine-5-carbonyl]-amino}-acetic acid], the inhibition at 22.22 µM came out at 96.7%.

Consider `O=C(O)CNC(=O)c1ncc2onc(-c3ccc(-c4ccccc4)cc3)c2c1O` [Example 29, [(3-Biphenyl-4-yl-4-hydroxy-isoxazolo[5,4-c]pyridine-5-carbonyl)-amino]-acetic acid], for which the inhibition at 22.22 µM came out at 99.4%.

As for `C[C@H](NC(=O)c1ncc2onc(-c3ccccc3)c2c1O)C(=O)O` [Example 30, 2-[(4-Hydroxy-3-phenyl-isoxazolo[5,4-c]pyridine-5-carbonyl)-amino]-(S)-propionic acid], testing at 200 µM (Concentration 200.00 μM) gave an inhibition of 100%.

For `C[C@@H](NC(=O)c1ncc2onc(-c3ccccc3)c2c1O)C(=O)O` [Example 31, 2-[(4-Hydroxy-3-phenyl-isoxazolo[5,4-c]pyridine-5-carbonyl)-amino]-(R)-propionic acid], the inhibition at 200 µM (Concentration 200.00 μM) came out at 61%.

Consider `O=C(O)CNC(=O)c1ncc2onc(-c3cccc(OC(F)(F)F)c3)c2c1O` [Example 32, {[4-Hydroxy-3-(3-trifluoromethoxy-phenyl)-isoxazolo[5,4-c]pyridine-5-carbonyl]-amino}-acetic acid], for which testing at 22.22 µM gave an inhibition of 99.1%.

As for `O=C(O)CNC(=O)c1nc(-c2cccnc2)c2onc(-c3ccccc3)c2c1O` [Example 33, [(4-Hydroxy-3-phenyl-7-pyridin-3-yl-isoxazolo[5,4-c]pyridine-5-carbonyl)-amino]-acetic acid], the inhibition at 22.22 µM was 99.6%.
